# Where two headings read alike, the source gives them in different places.
# Experiments:
# [1] = system: C57BL/6J mice; experiment: Respiration testing (CLAMS); assay type: in vivo, mouse; conditions: 100 nmol i.c.v., 90 min
# [2] = system: C57BL/6J mice; experiment: Locomotor testing (CLAMS); assay type: in vivo, mouse; conditions: 100 nmol i.c.v., 90 min
# [3] = system: C57BL/6J mice; experiment: Acute antinociceptive tolerance assay (55 °C warm water tail withdrawal); assay type: in vivo, mouse; conditions: i.c.v.
# [4] = system: C57BL/6J mice; experiment: Excreta assay (intestinal transit); conditions: 90 min
# [5] = molecular target: T1, MOR (Homo sapiens, UniProt P35372); experiment: Radioligand competition binding at MOR
# T1 sequence (P35372 whole entry): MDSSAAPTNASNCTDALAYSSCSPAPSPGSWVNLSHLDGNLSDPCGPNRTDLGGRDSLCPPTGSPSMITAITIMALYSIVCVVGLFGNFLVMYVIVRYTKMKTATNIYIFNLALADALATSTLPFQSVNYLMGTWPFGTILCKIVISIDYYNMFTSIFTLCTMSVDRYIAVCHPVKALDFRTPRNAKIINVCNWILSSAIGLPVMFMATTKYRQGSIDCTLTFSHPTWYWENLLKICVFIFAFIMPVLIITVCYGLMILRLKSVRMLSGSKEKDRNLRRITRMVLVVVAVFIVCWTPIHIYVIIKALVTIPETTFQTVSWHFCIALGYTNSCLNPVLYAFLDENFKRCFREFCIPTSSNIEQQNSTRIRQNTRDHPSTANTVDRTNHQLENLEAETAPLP
# [6] = molecular target: T2, DOR (Homo sapiens, UniProt P41143); experiment: Radioligand competition binding at DOR
# T2 sequence (P41143 whole entry): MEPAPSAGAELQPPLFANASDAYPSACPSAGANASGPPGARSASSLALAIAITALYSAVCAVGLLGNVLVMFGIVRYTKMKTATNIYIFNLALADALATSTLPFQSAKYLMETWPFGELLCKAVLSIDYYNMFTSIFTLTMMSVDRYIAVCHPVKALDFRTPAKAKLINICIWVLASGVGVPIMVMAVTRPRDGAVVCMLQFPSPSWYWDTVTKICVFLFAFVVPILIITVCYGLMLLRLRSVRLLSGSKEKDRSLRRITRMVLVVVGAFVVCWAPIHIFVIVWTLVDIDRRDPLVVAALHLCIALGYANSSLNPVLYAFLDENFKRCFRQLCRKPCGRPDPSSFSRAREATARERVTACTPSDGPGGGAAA
# [7] = molecular target: T3, KOR (Homo sapiens, UniProt P41145); experiment: biochemical; assay type: binding
# T3 sequence (P41145 whole entry): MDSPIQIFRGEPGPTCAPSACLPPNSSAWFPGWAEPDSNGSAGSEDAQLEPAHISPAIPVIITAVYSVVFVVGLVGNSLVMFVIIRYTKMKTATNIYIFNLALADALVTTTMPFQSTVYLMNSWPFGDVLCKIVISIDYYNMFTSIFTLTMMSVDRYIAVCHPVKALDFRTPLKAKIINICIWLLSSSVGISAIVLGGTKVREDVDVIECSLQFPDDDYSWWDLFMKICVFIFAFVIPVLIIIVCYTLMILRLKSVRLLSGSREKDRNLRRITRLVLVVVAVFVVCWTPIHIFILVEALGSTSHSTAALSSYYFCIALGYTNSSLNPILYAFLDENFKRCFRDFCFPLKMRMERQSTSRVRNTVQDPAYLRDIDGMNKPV
# [8] = molecular target: T4, hNPFF1-R (Homo sapiens, UniProt Q9GZQ6); experiment: Radioligand competition binding at NPFF1-R
# T4 construct: expressed in transfected cells; host or cells: CHO cells
# T4 sequence (Q9GZQ6 whole entry): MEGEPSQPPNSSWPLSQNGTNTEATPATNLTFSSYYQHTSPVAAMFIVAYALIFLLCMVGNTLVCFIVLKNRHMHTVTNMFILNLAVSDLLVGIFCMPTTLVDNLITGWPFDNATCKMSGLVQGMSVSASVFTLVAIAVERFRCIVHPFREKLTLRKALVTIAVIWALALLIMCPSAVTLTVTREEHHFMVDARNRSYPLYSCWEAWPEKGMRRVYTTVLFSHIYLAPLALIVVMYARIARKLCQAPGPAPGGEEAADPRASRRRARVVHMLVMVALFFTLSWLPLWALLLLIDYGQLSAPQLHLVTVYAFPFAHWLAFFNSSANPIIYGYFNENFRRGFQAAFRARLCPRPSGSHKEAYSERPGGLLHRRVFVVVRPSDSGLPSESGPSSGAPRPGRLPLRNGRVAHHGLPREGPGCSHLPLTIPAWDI
# [9] = molecular target: T5, hNPFF2-R (Homo sapiens, UniProt Q9Y5X5); experiment: Radioligand competition binding at NPFF2-R
# T5 construct: expressed in transfected cells; host or cells: CHO cells (membranes)
# T5 sequence (Q9Y5X5 whole entry): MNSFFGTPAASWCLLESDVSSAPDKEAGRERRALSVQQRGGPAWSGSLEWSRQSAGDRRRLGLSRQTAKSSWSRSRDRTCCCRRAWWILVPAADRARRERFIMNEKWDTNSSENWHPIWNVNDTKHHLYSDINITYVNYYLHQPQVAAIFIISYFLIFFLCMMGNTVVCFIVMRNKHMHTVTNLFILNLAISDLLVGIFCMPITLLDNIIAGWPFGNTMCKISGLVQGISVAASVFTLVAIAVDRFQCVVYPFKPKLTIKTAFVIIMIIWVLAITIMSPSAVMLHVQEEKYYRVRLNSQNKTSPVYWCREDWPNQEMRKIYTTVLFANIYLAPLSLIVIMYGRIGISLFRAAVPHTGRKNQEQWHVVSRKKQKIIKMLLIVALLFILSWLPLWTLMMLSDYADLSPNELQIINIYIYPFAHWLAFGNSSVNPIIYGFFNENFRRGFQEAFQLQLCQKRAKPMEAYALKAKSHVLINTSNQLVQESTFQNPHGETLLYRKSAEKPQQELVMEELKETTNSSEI
# [10] = molecular target: T1, MOR; experiment: [35S]GTPγS functional assay (agonist mode) at MOR; assay type: biochemical
# [11] = molecular target: T2, DOR; experiment: [35S]GTPγS functional assay (agonist mode) at DOR; assay type: biochemical
# [12] = molecular target: T3, KOR; experiment: [35S]GTPγS functional assay (agonist mode) at KOR; assay type: biochemical
# [13] = system: C57BL/6J mice; experiment: Antinociception assay (55 °C warm water tail withdrawal assay); assay type: in vivo, mouse; conditions: 30 nmol i.c.v., 55 °C
# [14] = system: C57BL/6J mice; experiment: Anti-hyperalgesia assay (48 °C warm water tail withdrawal assay, NPFF-induced hyperalgesia); assay type: in vivo, mouse; conditions: 30 nmol i.c.v. two hours before NPFF 30 nmol i.c.v.
# [15] = read-out: Receptor Binding, Ki ± SEM NPFF1-R
# [16] = [3H]EYF, transfected CHO cell membranes, read-out: Receptor Binding, Ki ± SEM NPFF2-R
# [17] = read-out: Receptor Binding, Ki ± SEM DOR
# [18] = GTPγS Delta Agonist Functional Assay EC50 (Figure S2 curve fit), Figure S2, axis Log(M), DPDPE run beside each compound
# [19] = [35S]GTPγS DOR EC50 ± SEM, agonist mode, standard DPDPE
# [20] = [35S]GTPγS KOR EC50 ± SEM, agonist mode, standard U-69,593
# [21] = GTPγS Kappa Agonist Functional Assay EC50 (Figure S2 curve fit), Figure S2, axis Log(M), U69,593 run beside each compound
# [22] = GTPγS Mu Agonist Functional Assay EC50 (Figure S2 curve fit)
SMILES,Ki [5] [nM],Ki [7] [nM],"Ki [8, 15] [nM]","Ki [9, 16] [nM]","Ki [6, 17] [nM]",EC50 ([10]; [35S]GTPγS MOR EC50 ± SEM) [nM],"EC50 [11, 18] [M]","EC50 [11, 19] [M]","EC50 [12, 20] [M]",antinociceptive activity over time (screening) [13],prevention of NPFF-induced hyperalgesia (screening) [14],"EC50 [12, 21] [M]",other results
"CN1CC[C@]23c4c5ccc(O)c4O[C@H]2[C@@H](O)C=C[C@H]3[C@H]1C5 [morphine, reference compound]",,,,,,,,,,,,,"effect on respiration rate [1]: significant respiratory depression; effect on ambulation (spontaneous locomotor activity) [2]: increased ambulation; antinociception ED50 (95% CI), single administration ([3]; 55 °C, baseline dose response): 2.35 (1.13–5.03) nmol; antinociception ED50 (95% CI), second administration ([3]; given 8 h after a first dose (morphine 3 nmol, 22b 8.7 nmol), 55 °C): 22.5 (8.48–61.9) nmol; rightward shift of antinociceptive dose response (acute tolerance) ([3]; second administration 8 h after first): 9.6 fold; number of excreted fecal boli ([4]; 30 nmol i.c.v.): 1.8 ± 0.8 boli; number of excreted fecal boli ([4]; 100 nmol i.c.v.): 1.5 ± 0.6 boli"
"CC(C)C[C@H](NC(=O)[C@@H](N)Cc1ccccc1)C(=O)N[C@@H](Cc1ccccc1)C(=O)N[C@@H](CCC(N)=O)C(=O)N1CCC[C@H]1C(=O)N[C@@H](CCC(N)=O)C(=O)N[C@@H](CCCN=C(N)N)C(=O)N[C@@H](Cc1ccccc1)C(N)=O [NPFF, neuropeptide FF, reference compound]",> 10000,> 10000,,,,,,,,,,,Ki [6]: > 10000 nM
"N=C(N)Nc1cccc(C(=C2CCN(Cc3ccccc3)CC2)c2ccccc2)c1 [Compound 22a, 1-(3-((1-Benzylpiperidin-4-ylidene)(phenyl)methyl)phenyl)guanidine]",6.45 ± 1.23,91 ± 9.9,1400 ± 61,2570 ± 423,3.37 ± 0.59,102 ± 21.3,2.56e-07,2.56e-07 ± 2.49e-08,2.55e-07 ± 5.77e-08,displayed antinociception in vivo second only to 22b,"more moderate, yet still statistically significant, effect",,
"N=C(N)Nc1ccc(C(=C2CCN(Cc3ccccc3)CC2)c2ccc(O)cc2)cc1 [Compound 14b, 1-(4-((1-Benzylpiperidin-4-ylidene)(4-hydroxyphenyl)methyl)phenyl)guanidine]",,56.6 ± 3.8,,,,,,,1.36e-07 ± 2.37e-08,displayed antinociception in vivo second only to 22b,"more moderate, yet still statistically significant, effect",1.36e-07,"Ki [8]: 1980 ± 288 nM; Ki [9]: 4820 ± 1010 nM; Ki ([5]; read-out: Receptor Binding, Ki ± SEM MOR): 313 ± 11 nM; Ki [6]: 6.46 ± 1.11 nM; EC50 [10]: 18600 nM; EC50 ([11]; Figure S2, axis Log(M), DPDPE run beside each compound, read-out: GTPγS Delta Agonist Functional Assay EC50 (Figure S2 curve fit)): 2.27e-07 M; EC50 ([11]; agonist mode, standard DPDPE, read-out: [35S]GTPγS DOR EC50 ± SEM): 2.27e-07 ± 1.25e-08 M"
"N=C(N)Nc1cccc(C(=C2CCN(Cc3ccccc3)CC2)c2cccc(O)c2)c1 [Compound 13a, 1-(3-((1-Benzylpiperidin-4-ylidene)(3-hydroxyphenyl)methyl)phenyl)guanidine]",5.06 ± 0.21,2.82 ± 0.39,2180 ± 280,7080 ± 1260,0.481 ± 0.192,28.3 ± 2.5,,2.41e-08 ± 2.5e-09,4.18e-08 ± 4.9e-09,did not show statistically significant antinociceptive activity,"more moderate, yet still statistically significant, effect",4.18e-08,"EC50 [10, 22]: 28.3 nM"
"N=C(N)Nc1cccc(C(=C2CCN(Cc3ccccc3)CC2)c2ccc(O)cc2)c1 [Compound 14a, 1-(3-((1-Benzylpiperidin-4-ylidene)(4-hydroxyphenyl)methyl)phenyl)guanidine]",33.5 ± 4.7,32.3 ± 3.5,1720 ± 308,> 10000,2.33 ± 0.6,420 ± 54.5,4.55e-07,4.55e-07 ± 6.17e-08,4.82e-07 ± 8.16e-08,did not produce statistically significant antinociception,greater anti-NPFF activity,,"reduction of affinity at DOR relative to 13a ([6]; hydroxyl shifted from 3′- to 4′- position): 4 fold; reduction of affinity at KOR relative to 13a [7]: 11 fold; EC50 [10, 22]: 420 nM"
"N=C(N)Nc1ccc(C(=C2CCN(Cc3ccccc3)CC2)c2cccc(O)c2)cc1 [Compound 13b, 1-(4-((1-Benzylpiperidin-4-ylidene)(3-hydroxyphenyl)methyl)phenyl)guanidine]",56.2 ± 7.5,30.6 ± 1.1,605 ± 136,6020 ± 1150,1.67 ± 0.61,1440 ± 226,9.61e-09,9.62e-09 ± 1.27e-09,2.68e-07 ± 3.19e-08,lacked any marked analgesic activity,greater anti-NPFF activity,2.68e-07,
